In patent publication US9120762B2, “Salts of bicyclo-substituted pyrazolon azo derivatives, preparation method and use thereof” (Jiangsu Hengrui Medicine Co., Ltd., priority 2009, dated 2015):
pEC50: −log10 of the molar value. Read-outs that look alike come from different tables or passages of the source.

Tests used:
[1] = Hygroscopicity assay, standing 48 hours at 25° C., humidity 79%; type: physicochemical; conditions: 48 hours, 25° C., humidity 79%
Description: The hygroscopicity test of the compounds of the present disclosure after standing for 48 hours
1. The arid glass weighing bottle with a tap (external diameter is 50 mm, the height is 15 mm) was placed at 25° C.±1° C. suitably in a thermostatic drier (saturated ammonium sulfate solution was laid in the lower part, humidity was 79%) the day before the assay, precise weight was measured as (m1);
2. The above weighing bottle was covered with the compounds of the invention (about 1 g), and the thickness of the compounds were generally 1 mm, precise weight was measured as (m2);
3. The mouth of the weighing bottle was kept open and placed with the tap in the above conditions with constant temperature and humidity for 48 hours;
4. Put the tap back on the bottle, precise weight was measured as (m3)
The degree of hygroscopicity was defined as follows: […]
Deliquesce: turning into liquid by absorbing enough moisture.
High hygroscopicity: the percentage of hygroscopicity weight gain is not less than 15%.
Hygroscopicity: the percentage of hygroscopicity weight gain is less than 15%, but not less than 2%.
Sparing hygroscopicity: the percentage of hygroscopicity weight gain is less than 2%, but not less than 0.2%.
No hygroscopicity or almost no hygroscopicity: the percentage of hygroscopicity weight gain is less than 0.2%.

[2] = molecular target: T1, human TPOR (Homo sapiens, UniProt P40238); test: Proliferation effect on BAF3-TPOR cell (CCK-8); type: cell-based; conditions: rate relative to rhTPO positive control
T1 construct: host or cells: BaF3 (murine pro-B cells), stably transfected, G418-selected
T1 sequence (P40238 26-635): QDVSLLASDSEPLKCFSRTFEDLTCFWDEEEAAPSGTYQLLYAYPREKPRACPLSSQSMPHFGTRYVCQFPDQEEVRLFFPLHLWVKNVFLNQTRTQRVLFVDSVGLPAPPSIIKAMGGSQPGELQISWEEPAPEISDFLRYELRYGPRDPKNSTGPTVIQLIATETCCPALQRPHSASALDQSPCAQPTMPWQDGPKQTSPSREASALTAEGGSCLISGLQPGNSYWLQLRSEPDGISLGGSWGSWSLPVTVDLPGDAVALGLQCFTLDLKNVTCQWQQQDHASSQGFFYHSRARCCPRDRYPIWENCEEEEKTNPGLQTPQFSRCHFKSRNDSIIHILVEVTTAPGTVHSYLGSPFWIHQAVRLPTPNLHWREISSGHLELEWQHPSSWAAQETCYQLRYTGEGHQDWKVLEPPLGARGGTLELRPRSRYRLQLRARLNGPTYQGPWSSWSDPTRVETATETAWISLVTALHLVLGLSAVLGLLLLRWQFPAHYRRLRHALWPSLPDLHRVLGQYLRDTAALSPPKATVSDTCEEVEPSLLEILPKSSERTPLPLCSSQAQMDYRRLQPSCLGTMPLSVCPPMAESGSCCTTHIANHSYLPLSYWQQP
Description: (1) Plasmid constructs: based on the TPO receptor (TPOR) sequence information from Entrez (Gene ID: 4325, Refseq: NM_005373), dual-site mutation was performed on EX-B0010-M02 plasmid by using QuikChange® Multi Site Directed Mutagenesis Kit (Stratagene). The sequence of primers containing multi-sites mutation was designed as follows: […]
The E. coli DH5α competent cells were transformed with mutated plasmid, and positive colonies were picked up through ampicillin selection. The mutation result was confirmed by sequence analysis.
(2) BAF3-TPOR stable transfected cell line: the following method was used to construct the BaF3 cell which stably over-expressed functional human TPOR. The successfully mutated EX-B0010-M02 plasmid ([…]) which expressed human TPOR and screening gene neomycin was transfected into wild-type BaF3 cells (1×10^7) by electroporation at 250V for 18 ms using an electric pulse generator (Electro Square Porator ECM830, BTX Division of Genetronic, Inc. US). The stable transfected cells BAF3-TPOR were selected with G418 (Gibco, US), then incubated in RPMI1640 medium plus 10% FBS (Gibco, US), […] G418, 5 ng/mL, rmIL-3 (Chemicon, US).
(1) Washing cells by centrifugation: a suitable amount of cell suspension was centrifuged at 1000 rpm for 5 minutes, and the supernatant was discarded. 10 mL of cell culture media without IL-3 was added. Then the resulting cell suspension was centrifuged at 1000 rpm for 5 minutes, and the supernatant was discarded.
(2) 1 mL of cell culture media without IL-3 was added to beat upon them to equality, and the number of a suitable amount of cell suspension was counted after dilution.
(3) According to the result of the cell counting, a cell suspension in a concentration of 100,000 cell/mL was prepared.
(4) 100 μL of cell suspension was transferred to each well of 96-well culture plate, and there were 3 parallel wells, that is, there were a blank control group (B), a negative control group (N), a positive control group of TPO (P) and a test compound group (S).
(5) The test compound was dissolved in DMSO to prepare a 10 mM stock solution, and then the solution was diluted with RPMI 1640 medium into a series of test samples at different concentration: 30 μM, 10 μM, 3 μM, 1 μM, 0.3 μM, 0.1 μM, 0.03 μM, 0.01 μM, 0.003 μM, 0.001 μM.
(6) 10 μL of test compound solution was transferred to each well respectively; 1 μL of rhTPO (10 ng/mL) was added to positive control well.
(7) The plates were incubated in an incubator at 5% CO2 and 37° C. for 24 hours.
(8) After incubation, 10 μL of CCK-8 solution was added to each well and the plates were incubated in the incubator for another 24 hours.
(9) OD value was detected at 450 nm by VICTORS (Perkin Elmer 1420-120) plate reader.
(1) The proliferation rate was calculated as follows: Rate=[(S−B)/(P−B)]*100%
S: OD value of wells which contain test compound.
B: OD value of blank control wells
P: OD value of positive control wells
(2) The EC50 value was calculated by Origin 7.0 software.

[3] = Pharmacokinetics assay in rats; type: in vivo, SD rats; conditions: SD rats, intragastric, 50 mg/Kg (as free acid); 50 mg/kg
Outline: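 SD rats, half male and half female, dosed intragastrically with compound suspended at 5 mg/mL (as free acid) in 1% sodium carboxymethyl cellulose; fed 2 h post-dose. Plasma concentrations over time were measured by HPLC-UV. Parameters came from a compartmental fit, with Cmax and tmax as observed values.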

[4] = Pharmacokinetics assay in Beagle dogs; type: in vivo; conditions: intragastric, 5 mg/kg (as free acid), 5 mg/kg
Description: The pharmacokinetic behavior of the compounds of the present disclosure was studied and evaluated in Beagle dogs.
12 Healthy adult Beagles dogs, male, were purchased from Suzhou Xishan Drug Research and Development Colo., LTD. License number: SCXK (Suzhou) 2007-0005.
The test compound was diluted with 0.5% sodium carboxymethyl cellulose to 2.5 mg/mL (calculated as the free acid form) of suspension before use.
12 Healthy adult Beagles dogs, male, were divided into 4 groups. After an overnight fast, the dogs were administered intragastrically at a dose of 5.0 mg/kg (calculated as the free acid form), at a volume of 2 mL/kg.
Blood samples (1.2 mL) were taken from vein of forelegs at pre administration and at 0.25, 0.5, 1.0, 1.5, 2.0, 3.0, 5.0, 6.0, 8.0, 12.0, 14.0, 24.0 and 48.0 hours post administration, which were stored in heparinized tubes and centrifuged for 10 minutes at 3,500 rpm. The plasma samples were stored at −20° C. until analysis. The Beagles dogs were fed 2 hours after administration.
50 μL of Beagles dog plasma, obtained at various time points after administration, 20 μL of internal standard solution and 150 μL of methanol was added to result in protein precipitation. Then the mixture was mixed for 1 minute using a vortexer and centrifuged for 5 minutes at 11,000 rpm. 50 μL of the supernatant was analyzed by HPLC-UV.
The compartmental model of pharmacokinetics was fitted for the test compounds and the major pharmacokinetic parameters were calculated in which Cmax and tmax were the actually measured values.

[5] = Solubility assay in water, 0.1% hydrochloric acid and methanol; type: physicochemical
Outline: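 Solubility was classed by the solvent volume needed to dissolve 1 g (mL) of solute, from "very soluble" (<1 mL) to "practically insoluble" (not fully dissolved in 10000 mL).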

Structure (SMILES)	Percentage of weight gain [1] [%]	hygroscopicity [1]	pEC50 [2]	Area Under Curve AUC [3] [ng·h/mL]	Clearance CL/F [3] [mL/min/kg]	Half-Life t½ [3] [h]	Plasma Conc. Cmax [3] [ng/mL]	Time to peak Tmax [3] [h]	Area Under Curve AUC [4] [ng·h/mL]	Clearance CL/F [4] [mL/min/kg]	Half-Life t1/2 [4] [h]	Plasma Conc. Cmax [4] [ng/mL]	Time to peak Tmax [4] [h]	solubility ([5]; 0.1% hydrochloric acid, simulated gastric fluid, 0.1% hydrochloric acid, read-out: solubility) [µg/mL]	solubility ([5]; methanol) [µg/mL]	solubility ([5]; water) [µg/mL]	Mean Residence Time MRT [3] [h]
CC1=NN(c2ccc3c(c2)CCCC3)C(=O)/C1=N\Nc1cccc(-c2ccc(C(=O)O)o2)c1O [Example 10]	15.7	High hygroscopicity (the percentage of hygroscopicity weight gain is not less than 15%)	7.80	381000 ± 306000	8.23 ± 12.6	12.9 ± 6.32	65600 ± 44500	1.63 ± 0.75	9760	10.1	8.07	810	0.7				
CC1=NN(c2ccc3c(c2)CCC3)C(=O)/C1=N\Nc1cccc(-c2csc(C(=O)O)c2)c1O [Example 19d, (Z)-4-{2-hydroxy-3-[N′-(1-indan-5-yl-3-methyl-5-oxo-1,5-dihydro-pyrazol-4-ylidene)-hydrazino]-phenyl}-thiophene-2-carboxylic acid]			7.37	36100 ± 36400	24 ± 13.8	1.84 ± 1.05	7910 ± 6840	2.50 ± 0.58						< 1	<1	<1	3.01 ± 1.99
CC1=NN(c2ccc3c(c2)CCCC3)C(=O)/C1=N\Nc1cccc(-c2ccc(C(=O)O)o2)c1O [Example 23, (Z)-5-(2-hydroxy-3-{N′-[3-methyl-5-oxo-1-(5,6,7,8-tetrahydro-naphthalen-2-yl)-1,5-dihydro-pyrazol-4-ylidene]-hydrazino}-phenyl)-furan-2-carboxylic acid choline]	8.48	Hygroscopicity (the percentage of hygroscopicity weight gain is less than 15%, but not less than 2%)	7.37	123000 ± 89500	8.78 ± 4	7.61 ± 1.34	17200 ± 12300	3.25 ± 3.18									
